Here are results for 87 compounds from a melting point compilation (Tetko et al.; mined from patent text by program, amines drawn as free bases though some values may be those of a salt).

SMILES strings stand for the structures.

In turn, `OCCC1CCc2cc(OCc3ccc4ccccc4c3)ccc2C1` (configuration not stated) gave a melting point of 90 to 91 °C.
Under `Cn1cccc1-c1cc2nccnc2[nH]1` stands 208 to 209 °C.
Consider `O=C(O)C[C@@H](c1cc(F)cc(F)c1)C(F)(F)F`, for which the melting point is 73 to 75 °C.
`O=c1nc(-c2cccc(S(=O)(=O)CCc3ccccc3)n2)sc2ccccc12` had a melting point of 162 to 164 °C.
Consider `CCCn1c(=O)c2nc(C(C)Cc3ccc(OCC(=O)O)cc3)[nH]c2n(CCC)c1=O` (configuration not stated), for which the melting point fell in the range of 168 to 170 °C.
Compound `Nc1ncnc2c1c(-c1ccc(Oc3ccccc3)cc1)cn2CCN1C(=O)c2ccccc2C1=O` showed a melting point of 111 to 112 °C.
Next, `Cc1ccc2c(n1)C(=O)N(c1c(Cl)ccc(C)c1C#N)C2=O`: 173 to 176 °C; `O=c1[nH]c2cc(Cl)ccc2c(=O)cc1NCc1ccccc1`: 309 to 314 °C; `CCCc1c(OCCCOc2cc(NC(=O)C(=O)O)c(C)cc2Br)ccc(C(C)=O)c1O`: 101 to 103 °C.
`O=C(N[C@H](Cc1ccc(F)cc1)[C@@H](O)c1ccc(C(F)(F)F)cc1)c1ccc(F)c2ccccc12` (racemic) gave a melting point of 235 to 236 °C.
The compound `CC(C)(C)CC(C)(C)Nc1nc(Cl)nc(N2CC3CCC(CC3)C2)n1` returned a melting point of 159 to 162 °C.
On to `Cc1c(C)c2c(c(C)c1Br)OC(C)(C)C2=O`, for which the melting point was in the range of 125 to 127 °C.
Under `Nc1nc(-c2ccccc2)c2ncn(C3OC(CO)C(O)C3O)c2n1` (configuration not stated) stands 187 to 190 °C.
For `CC(=O)OCC(COC(C)=O)(NC(=O)OC(C)(C)C)C(=O)c1ccccc1`, the melting point is 112 to 113 °C.
Compound `CCCCC(CC)COC(=O)COc1cc(F)ccc1C(=O)NCc1cccc([N+](=O)[O-])c1` (configuration not stated) showed a melting point of 59 to 60 °C.
Next, `COC1(OC)CCC2=C3C(c4ccc(C5OCC(C)(C)CO5)cc4)CC4(C)C(=O)CCC4C3CCC2(O)C1` (configuration not stated): 194 to 202 °C; `O=C(O)CN1CC(=O)N(Cc2ccc(Cl)c([N+](=O)[O-])c2)C1=O`: 167 to 168 °C; `Cc1nc(NC(=O)c2cnn3c(C(F)F)cc(-c4ccc(C(F)(F)F)cc4)nc23)sc1S(=O)(=O)NC(C)(C)CO`: 268 °C.
Next, `COC(=O)C1=C(C)NC(C)=C(C(=O)OCCN2CCN(C(c3ccccc3)c3ccccc3)CC2)C1c1ccccc1Cl` (configuration not stated): 81 to 83 °C; `CN(CCO)Cc1cc(C(=O)c2ccccc2)cc(C(C)(C)C)c1O`: 118 to 119 °C.
With `Cc1c(C#N)c(N)n(-c2ccccc2Br)c1C`, the melting point lay within 233 to 235 °C.
`COc1cccc(SSc2cccc(OC)c2S(N)(=O)=O)c1S(N)(=O)=O` yielded a melting point of 263 °C.
With `COc1ccc(CC(=O)NCc2ccccc2-c2ccccc2C(=O)NCCc2cccnc2)cc1`, the melting point is 116 °C.
`FC(F)(F)c1ccc(-c2ccc(Cl)nn2)cc1` had a melting point of 186 to 188 °C.
For `CC(C)NC(=O)N1CCC(F)(Cc2c3c(nn2C)c(N)nc2ccccc23)CC1`, the melting point lay in the range of 241 to 244 °C.
The compound `COc1ccc2c(c1)c(C=O)cn2CCCCl` registered a melting point of 75 to 76 °C.
`COc1cc(C(=O)O)ccc1Cc1nn(C)c2ccc(NC(=O)OC3CCCC3)cc12` gave a melting point of 216 to 217 °C.
As for `CN(C)CCc1nc(C(N)=O)c2n1-c1ccc(Cl)cc1C(c1ccccc1Cl)=NC2`, the melting point lay within 249 to 251 °C.
On to `Cc1ccc2c(c1)C(c1ccccc1)=NCc1nnc(CN(C)C)n1-2`, for which the melting point fell in the range of 154 to 156 °C.
Compound `COC(=O)c1ccc(CN2N=C(c3ccc(OC)c(OC)c3)[C@@H]3CCCC[C@@H]3C2=O)cc1` (relative stereo) returned a melting point of 90 to 92 °C.
Under `Cc1nc(-c2cc3c(Oc4ccc(Cl)cc4)cncc3s2)no1` stands 120 to 121 °C; under `CNc1cc(NS(=O)(=O)c2ccc(N)cc2)cc(C)n1`, 173 to 175 °C.
`CCCCC1(CCCC)NC(c2nc(-c3ccncc3)c[nH]2)Cc2c1[nH]c1ccccc21` (configuration not stated) came in with a melting point of 200 to 205 °C.
Next, `CCOC(=O)CCCCCCCCCCNC(=O)c1cc(O)ccc1O`: 72 to 74 °C.
`Cc1cccc(NC(=O)Nc2cccc3c2C2CC(=O)CCN2C3=O)n1` (configuration not stated) yielded a melting point of 226 to 228 °C.
For `O=C1c2cc3nnn(CCc4cccc(F)c4)c(=O)c3cc2OC2OCCN12` (configuration not stated), the melting point was 191 to 193 °C.
As to `O=C(c1nc(NNNc2ccccc2)nc(C(=O)c2ccccc2O)n1)c1ccccc1O`, the melting point turned out to be 170 °C.
Compound `OC1CSC(Oc2ccc(-c3cc4ccccc4o3)nc2)C(O)C1O` (configuration not stated) gave a melting point of 195 °C.
`CN1CCc2c(c3ccccc3n2CCC#N)C1` had a melting point of 108 to 110 °C.
Compound `CCS(=O)c1cnc(Cl)c(Cl)c1` (configuration not stated) yielded a melting point of 78 to 79 °C.
Next, `Cc1cc(-c2cc(C(F)(F)F)n3nccc3n2)ccc1Cl`: 114 °C.
For the compound `COC1O[C@H](CC#N)[C@H](OCc2ccccc2)[C@H]1O` (some centres not stated), the melting point lay in the range of 59 to 60 °C.
In the case of `CN(CCOc1ccc(NS(C)(=O)=O)cc1)CCc1ccc(N)cc1`, the melting point is 155 to 157 °C.
Under `CCOC(=O)c1cc2ccoc2nc1C(=O)OCC` stands 66 to 77 °C; under `C=CCCOc1ccc(C(=O)Oc2ccc3ccc(=O)oc3c2)cc1`, 108 to 109 °C; under `CCn1c(=O)c2c(nc(/C=C/c3cc(OC)ccc3OC(C)=O)n2C)n(CC)c1=O`, 186 to 187 °C.
Compound `O=C(NCc1ccc(Cl)cc1)c1cn(CCCOC2CCCCO2)c2c(F)cc(CO)cc2c1=O` (configuration not stated) displayed a melting point of 148 to 150 °C.
Compound `CCOc1ccccc1COc1ccc2c(c1)C=C(C(=O)Nc1ccc(CN(C)C3CCOCC3)cc1)CCS2(=O)=O` showed a melting point of 211 to 214 °C.
As for `COc1cc(F)c(C(=O)Nc2c(Cl)cncc2Cl)cc1OC1CCCC1`, the melting point lay within 143 to 144 °C.
The compound `Cc1nnc2ncc(-c3cccc(C(F)(F)F)c3)nn12` showed a melting point of 265 to 268 °C.
For `CC(=O)c1cc(NS(C)(=O)=O)ccc1O`, the melting point lay within 121 to 122 °C.
For the compound `CC(N)CSc1c[nH]c2ccccc12` (configuration not stated), the melting point was 110 to 112 °C.
`N#CN=C(NCC(=O)O)Nc1cccc(Cl)c1` yielded a melting point of 109 °C.
`Cn1nc(-c2ccc(S(C)(=O)=O)cc2)c(-c2ccc(F)cc2)c1OCC(=O)c1ccc(F)cc1` registered a melting point of 166 to 169 °C.
Regarding `N#Cc1ccc(C=CC(=O)C2CC2)cc1`, the melting point worked out at 104 °C.
For the compound `NC(=O)CNC(=O)c1cccc(-c2ccnc3cc(Cc4cccc(C(F)(F)F)c4)sc23)c1`, the melting point was 183 to 184 °C.
In turn, `Cc1nnsc1C(=O)NS(=O)(=O)c1ccc(Cl)cc1` yielded a melting point of 165 °C.
`O=C(O)C1=Cc2cc(S(=O)(=O)Cl)ccc2OC1C(F)(F)F` (configuration not stated) registered a melting point of 208 to 212 °C.
`CSc1ncc2c(n1)N(Cc1ccc(F)c(F)c1)c1ccccc1-n1nnnc1-2` came in with a melting point of 281 to 283 °C.
In turn, `CN(c1cccc(-c2ccnc3c(C#N)cnn23)c1)S(C)(=O)=O` registered a melting point of 193 to 195 °C.
Regarding `COCC(O)=C(N)C(=O)O`, the melting point was 186 to 187 °C.
`N#Cc1cc(N)ccc1Sc1ccccc1` gave a melting point of 73 to 75 °C.
Regarding `CC(C)n1cc(C(=O)O)c2ccc(Cl)cc21`, the melting point is 206 to 208 °C.
Under `CCCCc1nc2cccc(C=O)c2n1Cc1ccccc1Cl` stands 114 to 115 °C; under `COC(=O)CCC#Cc1cc(F)cc([N+](=O)[O-])c1`, 111 to 112 °C.
The compound `CCOC(=O)N1CCC(=C2c3cc(C)ccc3CCn3ccnc32)CC1` registered a melting point of 156 °C.
In turn, `O=C(O)C(=O)CC(=O)c1cccn1Cc1cccc2ccccc12` returned a melting point of 172 to 174 °C.
Under `CCC(CC)NC(=O)c1ccc(-c2scc(-c3ccccc3Cl)c2CC(=O)O)cc1` stands 101 to 103 °C.
Next, `c1ccc(-c2cn3ccccc3n2)cc1`: 135 to 137 °C; `O=C(Nc1ccc(Cl)c(Cl)c1)Oc1cccc(N=C=S)c1`: 118 to 123 °C.
Next, `CC(=O)N1C(=O)N(COCc2ccccc2)C(=O)C12c1ccccc1N(CC(C)C)C(=O)N2C` (configuration not stated): 70 to 72 °C; `CN1Cc2cccc3[nH]cc(c23)C1`: 185 to 186 °C.
In turn, `Clc1ccc2ccc(COc3ccc(CN4CCc5cccc(CCc6nnn[nH]6)c54)cc3)nc2c1` displayed a melting point of 69 to 73 °C.
Next, `CC(=O)N[C@H]1c2cc(C#N)ccc2OC(C)(C)[C@H]1O` (relative stereo): 193 to 194 °C; `CC(C)CC1(C(CCN2C(=O)c3c(F)c(F)c(F)c(F)c3C2=O)C(=O)NO)CCN(Cc2ccccc2)C1=O` (configuration not stated): 183 to 185 °C.
Under `O=C(O)c1ccc(-c2cnc(-c3ccc(C(F)(F)F)cc3)o2)cc1` stands 253 to 254 °C; under `COc1cccc(CO)c1C(O)c1ccccn1` (configuration not stated), 102 to 104 °C; under `CCOC(=O)c1ccc(OCCC2CCc3c(c(OC)c(OC)c(OC)c3OC)CC2)cc1`, 129 to 131 °C.
As for `CCc1c(NC(=O)c2ccc(-c3ccc(F)cc3)cc2)ccc2cc(CN3CCCC3)cnc12`, the melting point is 258 to 260 °C.
Under `Cc1ccc(S(=O)(=O)N2C3=NC(C)(C)N(C)C(=O)N3c3ccccc32)cc1` stands 147 to 149 °C; under `Clc1nccc(N[C@H]2CC[C@@H](c3ccccc3)CC2)c1Br`, 105 °C; under `CC(=O)c1ccc(OCC(O)COc2ccc(C#N)cc2)cc1O` (configuration not stated), 162 to 163 °C.
Under `CCCCCCOC(=O)C1=C(C)NN=C(CC)C1c1cccc([N+](=O)[O-])c1` (configuration not stated) stands 92 °C; under `C[C@H](CSc1nc2ccccc2[nH]1)Nc1nc(Cl)nc2c1ncn2[C@@H]1O[C@H](CO)[C@@H](O)[C@H]1O`, 213 to 215 °C.
Next, `CN1C(=O)CC[C@]2(C)c3ccc(Oc4ccc5ccccc5n4)cc3CC[C@@H]12`: 172 to 174 °C; `Cc1c(Cl)cccc1NC(=O)NCc1ccc2c(c1)CN(C1CCC(=O)NC1=O)C2=O` (configuration not stated): 252 to 254 °C; `Cc1cccc(C)c1NC(=O)N=C1N(C)CC(=O)N1C`: 116 to 118 °C.

As a reminder, the melting point is the temperature, or range, at which the solid turns liquid.
